Measured values taken from patent publication US9737502B2, “Calebin A for hepatic steatosis” (SAMI LABS LIMITED, priority 2011, dated 2017).

What was measured:
IL-1 beta = experiment: Serum IL-1 beta in LPS-injected mice after 6 days oral treatment (ELISA); format: in vivo, Swiss albino mice; conditions: graded doses, then LPS 1 mg/kg i.v., serum 90 min after LPS
Experimental: The present inventors also adduce study data on the ability of Calebin A to reduce expression of Extracellular TNF-α, IL-1 beta [FIG. 6] and IL-6 [FIG. 7] in serum from treated mice (in-vivo models). Swiss albino male mice aged 6-8 weeks were maintained at 22±2° C. under 12/12 h light dark cycle. Mice received oral treatment of test drugs at graded doses (w/v) for 6 days, followed by intravenous injection of 1 mg/kg of LPS according to the method described by Brieva A, Guerrero A, Alonso-Lebrero J L and Pivel J P. 2001. Immunoferon, a glycoconjugate of natural origin, inhibits LPS-induced TNF-α production and inflammatory responses. International Immunopharmacology 1, 1979-1987. Six mice were employed in each group and experiments were performed in triplicates. TNF-α, IL-1 beta and IL-6 production was evaluated by a commercial ELISA kits (R&D Systems) in serum from treated mice, 90 min after LPS injection. Rolipram at 30 mg/kg was used as standard drug.

leptin = experiment: Study 2: serum leptin by ELISA in obese mice; format: in vivo, C57 mice; conditions: Study 2, end of study period
Experimental: Further, on completion of the study period blood samples were collected from all the animals in […] for estimation of systemic expression of leptin and adiponectin. Blood samples were collected humanely from retro-orbital plexus puncture method under mild ether anesthesia with the help of a fine capillary tube. The blood samples collected in tubes without anticoagulant were centrifuged at 3000 rpm for 10 minutes to obtain serum which was subjected to ELISA technique for the estimation of leptin and adiponectin. The import of leptin and adiponectin expression as biomarkers in obesity has been discussed in aforesaid paragraphs. […] Low systemic adiponectin levels have been cited as predictive factors in the progression of disease states like Type II Diabetes mellitus (Chamukuttan Snehalatha et al, “Plasma Adiponectin Is an Independent Predictor of Type 2 Diabetes in Asian Indians”, Diabetes Care December 2003 vol. 26 no. 12 3226-3229).

[1] = tested on: epididymal fat (adipocytes); experiment: Adipocyte size in epididymal fat of HFD mice (H&E histology); format: in vivo, C57BL/6J mice; conditions: Calebin A 0.25% and 1%, 12 weeks
Experimental: Fully differentiated adipocytes (8 days) previously untreated with Calebin A as described in procedural steps outlined in Example IV were treated with Calebin A at concentrations of 5-30 μM. Lipolysis was linked to the breakdown of lipids into glycerol that was released into the cell culture medium and detected thereof. […] Thus, in another most preferred embodiment, the present invention relates to a method of inducing lipolysis in mammalian adipocytes, said method comprising the step of treating mammalian adipocytes with varying concentrations of Calebin A to bring about the effect of dose dependant lipolysis in said adipocytes. […] Epididymal fat pads were dissected and fixed in 10% buffered formalin for at least 24 hours, then dehydrated with a sequence of ethanol solutions and processed for embedding in paraffin. Sections of 5-6 μm in thickness were cut, de-paraffinized, rehydrated, stained with haematoxylin & eosin (H&E) and subjected to photomicroscopic assessment. Adipocyte size was determined using a Nikon light microscope (Japan) equipped with an ocular micrometer at 200× magnification in 10 random fields per section. […]

## COc1cc(/C=C/C(=O)COC(=O)/C=C/c2ccc(O)c(OC)c2)ccc1O [Calebin A]
IL-1 beta
  expression of IL-1 beta in serum: effective in reducing
leptin
  inhibition of leptin expression in the serum of obese animals: insignificant effect
[1]
  size of adipocytes: remarkable reduction
